Reference: PubChem BioAssay AID2060494 (Molecular Pharmacology Branch, DTP, NCI, 2025)
pIC50: −log10 of the molar value. One block for each compound: values may come before it.

Test system: 435261-313-R-J1-PDC complex spheroid viability
Experiment: Anticancer human tumor 435261-313-R-J1-PDC patient-derived colon adenocarcinoma cell line growth inhibition [GQUAD]
Settings: for pIC50: curve of first compound; for viability, T/C: stronger effect = lower value
From the text: DNA G-quadruplex Stabilizer Agents in Combinations in Complex Spheroids
A high-throughput screen of multi-cell type tumor spheroids was designed to identify active combinations of DNA G-quadruplex stabilizer agents and targeted small molecules. Complex spheroids include a stromal component modeled by human endothelial cells (HUVEC) and fibroblasts modeled by human mesenchymal stem cells (MSCs). The concentration ranges selected for each drug and investigational agent were based upon clinically achievable concentrations if the clinical Cmax of the agent was known.
Compounds. The drugs and investigational agents: pidnarulex (CX-5461; NSC782164), APTO-253 (NSC789042), BRACO-19 (NSC847499), peposertib (NSC802822), ceralasertib (NSC780249), elimusertib (NSC800525), camonsertib (NSC841442), AZD-1390 (NSC803789), olaparib (NSC753686), talazoparib (NSC767125), ART-558 (NSC835418), sotorasib (NSC818433), MRTX-1133 (NSC836407), SN-38 (NSC673596), topotecan (NSC609699), etoposide (NSC141540), doxorubicin (NSC123127), gemcitabine (NSC613327), 5-fluorouracil (NSC19893), paclitaxel (NSC125973), vemurafenib (NSC761431), panobinostat (NSC761190), R-306465 (JNJ-16241199; NSC773264), adavosertib (NSC754352), TP-3654 (NSC805149), carboplatin (NSC241240), KSQ-4279 (NSC840948), and staurosporine (NSC755774) were obtained from the National Cancer Institute (NCI) Developmental Therapeutics Program Chemical Repository (34). The FDA-approved anticancer drug set is available from the NCI Developmental Therapeutics Program. […] The stock solutions were prepared in dimethyl sulfoxide (DMSO, Sigma-Aldrich, St. Louis, MO, cat. D2650) at 800-fold the tested concentration and stored at -70 degrees C prior to their use. All drugs and investigational agents were tested over a range starting from a high concentration at or near the clinical Cmax and decreasing in half-log increments. If the clinical Cmax for an agent had not been determined, the highest concentration tested was 10 microM.
2.3 Cell Culture. All cells were maintained in an incubator at 37 degrees C and 5% CO2 with 95% humidity. The PDC lines were cultured according to standard operating procedures established by the NCI PDMR. All PDCs were thawed and cultured in Matrigel-coated flasks prepared with a working solution of 1X Ham's F-12 nutrient mix, without supplementation (Invitrogen, cat. 11765054), 100 U/mL penicillin-streptomycin (Invitrogen, cat. 15140122), and 2.5% Matrigel (Corning Inc., cat. 354248) for the first three passages. The 857933-349-R-J2-PDC line was cultured in 6C/Colon 1B media, which includes advanced DMEM/F-12 (Thermo Fisher Scientific, cat. 12634028), 10 mM HEPES (Thermo Fisher Scientific, cat. 15630080), 1X GlutaMAX supplement (Thermo Fisher Scientific, cat. 35050061), 0.1 mg/mL primocin (InvivoGen, cat. ant-pm-2), 10% defined fetal bovine serum, heat inactivated (HyClone Laboratories Inc., cat. SH30070.03HI), 50% L-WRN conditioned media (ATCC, cat. CRL-3276), 1.25 mM N-Acetyl-L-cysteine (Sigma-Aldrich, cat. A9165), 10 mM nicotinamide (Sigma-Aldrich, cat. N0636), 1X B-27 supplement (Thermo Fisher Scientific, cat. 17504044), 1X N-2 supplement (Thermo Fisher Scientific, cat. 17502048), 10 microM Y-27632 dihydrochloride (Tocris Bioscience, cat. 1254), and 50 ng/mL human EGF recombinant protein (Thermo Fisher Scientific, cat. PHG0311). The 485176-168-R4-J1-PDC line was cultured in Panc media, which includes all 6C/Colon 1B media components plus 100 ng/mL human FGF-10 (Thermo Fisher Scientific, cat. 100-26), 500 nM SB-431542 (Selleckchem, cat. S1067), and gastrin (Tocris, cat. 3006).
[…]

[1] = second compound 0.0316 µM, first compound 0.0316 µM
[2] = second compound 0.0316 µM, first compound 0.1 µM
[3] = second compound 0.0316 µM, first compound 0.316 µM
[4] = second compound 0.0316 µM, first compound 1 µM
[5] = second compound 0.0316 µM, first compound 3.16 µM
[6] = second compound 0.0316 µM, first compound 10 µM
[7] = second compound 0.1 µM, first compound 0.0316 µM
[8] = second compound 0.1 µM, first compound 0.1 µM
[9] = second compound 0.1 µM, first compound 0.316 µM
[10] = second compound 0.1 µM, first compound 1 µM
[11] = second compound 0.1 µM, first compound 3.16 µM
[12] = second compound 0.1 µM, first compound 10 µM
[13] = second compound 0.316 µM, first compound 0.0316 µM
[14] = second compound 0.316 µM, first compound 0.1 µM
[15] = second compound 0.316 µM, first compound 0.316 µM
[16] = second compound 0.316 µM, first compound 1 µM
[17] = second compound 0.316 µM, first compound 3.16 µM
[18] = second compound 0.316 µM, first compound 10 µM
[19] = second compound 1 µM, first compound 0.0316 µM
[20] = second compound 1 µM, first compound 0.1 µM
[21] = second compound 1 µM, first compound 0.316 µM
[22] = second compound 1 µM, first compound 1 µM
[23] = second compound 1 µM, first compound 3.16 µM
[24] = second compound 1 µM, first compound 10 µM
[25] = second compound 3.16 µM, first compound 0.0316 µM
[26] = second compound 3.16 µM, first compound 0.1 µM
[27] = second compound 3.16 µM, first compound 0.316 µM
[28] = second compound 3.16 µM, first compound 1 µM
[29] = second compound 3.16 µM, first compound 3.16 µM
[30] = second compound 3.16 µM, first compound 10 µM
[31] = second compound 10 µM, first compound 0.0316 µM
[32] = second compound 10 µM, first compound 0.1 µM
[33] = second compound 10 µM, first compound 0.316 µM
[34] = second compound 10 µM, first compound 1 µM
[35] = second compound 10 µM, first compound 3.16 µM
[36] = second compound 10 µM, first compound 10 µM
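Note: spheroids exposed to the agents for seven days before readout.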
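Throughout, for viability, T/C: percent of vehicle control viability with DMSO wells as 100%.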

pIC50 (second compound 0.0316 µM): 5.74
pIC50 (second compound 0.1 µM): 6.47
pIC50 (second compound 0.316 µM): 6.35
pIC50 (second compound 1 µM): > 7.50
pIC50 (second compound 3.16 µM): > 7.50
pIC50 (second compound 10 µM): > 7.50
SMILES: C#Cc1c(F)ccc2cc(O)cc(-c3ncc4c(N5CC6CCC(C5)N6)nc(OCC56CCCN5CC(F)C6)nc4c3F)c12 (stereo not drawn) + Cc1cnc(CNC(=O)c2c(=O)c3ccc(N4CCCN(C)CC4)nc3n3c2sc2ccccc23)cn1
viability, T/C [1]: 74.5%
viability, T/C [2]: 61%
viability, T/C [3]: 71.5%
viability, T/C [4]: 50.5%
viability, T/C [5]: 45.9%
viability, T/C [6]: 34.7%
viability, T/C [7]: 59.5%
viability, T/C [8]: 62.2%
viability, T/C [9]: 49.8%
viability, T/C [10]: 36.6%
viability, T/C [11]: 43.1%
viability, T/C [12]: 29.6%
viability, T/C [13]: 53%
viability, T/C [14]: 59.6%
viability, T/C [15]: 55.4%
viability, T/C [16]: 37.8%
viability, T/C [17]: 34.8%
viability, T/C [18]: 30.5%
viability, T/C [19]: 37.4%
viability, T/C [20]: 34.4%
viability, T/C [21]: 34.1%
viability, T/C [22]: 34.3%
viability, T/C [23]: 30%
viability, T/C [24]: 17.1%
viability, T/C [25]: 0.16%
viability, T/C [26]: 6.4%
viability, T/C [27]: 0.17%
viability, T/C [28]: 6.39%
viability, T/C [29]: 0.17%
viability, T/C [30]: 0.15%
viability, T/C [31]: 0.12%
viability, T/C [32]: 0.14%
viability, T/C [33]: 0.16%
viability, T/C [34]: 0.16%
viability, T/C [35]: 0.22%
viability, T/C [36]: 0.18%

pIC50 (second compound 0.0316 µM): 6.20
pIC50 (second compound 0.1 µM): 6.41
pIC50 (second compound 0.316 µM): 6.80
pIC50 (second compound 1 µM): > 7.50
pIC50 (second compound 3.16 µM): > 7.50
pIC50 (second compound 10 µM): > 7.50
SMILES: COc1ccc([C@@H](O)c2cc(-c3ncnc4cc(N5CCOCC5)ccc34)c(F)cc2Cl)nn1 + Cc1cnc(CNC(=O)c2c(=O)c3ccc(N4CCCN(C)CC4)nc3n3c2sc2ccccc23)cn1
viability, T/C [1]: 59.5%
viability, T/C [2]: 67.4%
viability, T/C [3]: 71.8%
viability, T/C [4]: 39.2%
viability, T/C [5]: 27.8%
viability, T/C [6]: 20.3%
viability, T/C [7]: 49.8%
viability, T/C [8]: 65%
viability, T/C [9]: 48.9%
viability, T/C [10]: 41.4%
viability, T/C [11]: 26.3%
viability, T/C [12]: 16.8%
viability, T/C [13]: 47.6%
viability, T/C [14]: 60.9%
viability, T/C [15]: 44.6%
viability, T/C [16]: 34.8%
viability, T/C [17]: 25.6%
viability, T/C [18]: 13.4%
viability, T/C [19]: 32.3%
viability, T/C [20]: 42.6%
viability, T/C [21]: 34.8%
viability, T/C [22]: 28.4%
viability, T/C [23]: 17.2%
viability, T/C [24]: 5.89%
viability, T/C [25]: 5.04%
viability, T/C [26]: 14.9%
viability, T/C [27]: 16.5%
viability, T/C [28]: 0.16%
viability, T/C [29]: 0.14%
viability, T/C [30]: 0.29%
viability, T/C [31]: 0.11%
viability, T/C [32]: 0.16%
viability, T/C [33]: 0.16%
viability, T/C [34]: 0.2%
viability, T/C [35]: 0.17%
viability, T/C [36]: 0.15%

SMILES: Cc1cccc(N(C)C(=O)C2C(O)CCN2c2nc(C)cc(C(F)(F)F)c2C#N)c1 (stereo not drawn) + Cc1[nH]c2ccc(F)cc2c1-c1nc2c3cccnc3c3ncccc3c2[nH]1
pIC50 (second compound 0.0316 µM): < 5.00
pIC50 (second compound 0.1 µM): < 5.00
pIC50 (second compound 0.316 µM): < 5.00
pIC50 (second compound 1 µM): < 5.00
pIC50 (second compound 3.16 µM): > 7.50
pIC50 (second compound 10 µM): > 7.50
viability, T/C [1]: 123%
viability, T/C [2]: 111%
viability, T/C [3]: 121%
viability, T/C [4]: 91.4%
viability, T/C [5]: 97.2%
viability, T/C [6]: 92.3%
viability, T/C [7]: 106%
viability, T/C [8]: 141%
viability, T/C [9]: 138%
viability, T/C [10]: 135%
viability, T/C [11]: 117%
viability, T/C [12]: 113%
viability, T/C [13]: 76.1%
viability, T/C [14]: 105%
viability, T/C [15]: 104%
viability, T/C [16]: 104%
viability, T/C [17]: 117%
viability, T/C [18]: 115%
viability, T/C [19]: 95.2%
viability, T/C [20]: 86.7%
viability, T/C [21]: 152%
viability, T/C [22]: 129%
viability, T/C [23]: 117%
viability, T/C [24]: 59%
viability, T/C [25]: 30.2%
viability, T/C [26]: 41.4%
viability, T/C [27]: 38.5%
viability, T/C [28]: 44.9%
viability, T/C [29]: 47.7%
viability, T/C [30]: 42.9%
viability, T/C [31]: 27.1%
viability, T/C [32]: 27.7%
viability, T/C [33]: 33.7%
viability, T/C [34]: 27.1%
viability, T/C [35]: 28.7%
viability, T/C [36]: 23.5%

SMILES: CC(C)n1c(=O)n(C)c2cnc3cc(F)c(-c4ccc(OCCCN5CCCCC5)nc4)cc3c21 + CN(C)c1ccc(Nc2c3ccc(NC(=O)CCN4CCCC4)cc3nc3cc(NC(=O)CCN4CCCC4)ccc23)cc1
pIC50 (second compound 0.0316 µM): < 5.00
pIC50 (second compound 0.1 µM): 5.15
pIC50 (second compound 0.316 µM): 5.16
pIC50 (second compound 1 µM): 5.12
pIC50 (second compound 3.16 µM): 6.78
pIC50 (second compound 10 µM): 7.22
viability, T/C [1]: 127%
viability, T/C [2]: 103%
viability, T/C [3]: 92.8%
viability, T/C [4]: 98.6%
viability, T/C [5]: 89.2%
viability, T/C [6]: 59.1%
viability, T/C [7]: 75.2%
viability, T/C [8]: 99.2%
viability, T/C [9]: 97.7%
viability, T/C [10]: 71.3%
viability, T/C [11]: 85%
viability, T/C [12]: 34.4%
viability, T/C [13]: 88.8%
viability, T/C [14]: 128%
viability, T/C [15]: 109%
viability, T/C [16]: 113%
viability, T/C [17]: 73.7%
viability, T/C [18]: 38.3%
viability, T/C [19]: 93.3%
viability, T/C [20]: 89.9%
viability, T/C [21]: 63.7%
viability, T/C [22]: 63.7%
viability, T/C [23]: 70.3%
viability, T/C [24]: 40%
viability, T/C [25]: 63.7%
viability, T/C [26]: 54.4%
viability, T/C [27]: 42.5%
viability, T/C [28]: 30.2%
viability, T/C [29]: 39%
viability, T/C [30]: 11.6%
viability, T/C [31]: 68.4%
viability, T/C [32]: 36.3%
viability, T/C [33]: 14.8%
viability, T/C [34]: 9.87%
viability, T/C [35]: 4.77%
viability, T/C [36]: 1.9%
